# Assays:
# PI3 Kinase (p120γ) (h) = biological target: T1, PI3 Kinase (p120γ) (h) (Homo sapiens, UniProt P48736); assay: Inhibition of phosphatidylinositol 3-kinase gamma (PI3K γ), pAkt Western blotting in C5a-stimulated RAW264.7 macrophages; assay type: cell-based, mouse; conditions: ATP=10 uM, sample concentration=100 nM
# T1 construct: endogenous in cells; host or cells: RAW264.7
# Experimental: (§1) The stimulated cells were transferred in a 1.5 mL tube, followed by centrifugation at 3000 rpm for 1 minute. 100 μL of RIPA buffer (radioimmunoprecipitation assay buffer, 50 mM Tris-HCl, 5 mM EDTA, 150 mM NaCl, 1% NP-40, 1 mM PMSF, pH 8.0; ELPIS, Korea) was added thereto, which was stored in a 4° C. refrigerator for 12 hours. Centrifugation was performed at 4° C. at 14,000 rpm for 20 minutes. The supernatant was transferred into a new 1.5 mL tube. Protein was quantified by BCA (bicinchoninic acid) method and samples were prepared. The composition of the sample was as follows: sample buffer (ELPIS, EBA-1052) 5×, protein 10 μg, and 1× sample buffer to make the total volume 20 μL. The sample was heated at 100° C. for 5 minutes. The evaporated water vapor was condensed in a refrigerator. The liquid stained on the wall was fallen down by centrifugation for a few seconds. The sample proceeded to 10% SDS (Sodium Dodecyl Sulfate) acrylamide gel for separation. The separated protein was transferred onto PVDF (poly-vinyl difluoride) membrane, followed by reaction with pAkt (phospho protein kinase B) antibody (Ser473 or Thr308; Cell signaling, 9271s or 13038s) for 12 hours at 4° C. The membrane was washed with TBST (Tris-Buffered Saline with Tween 20, 10 mM Tris-HCl, pH 7.5, 150 mM NaCl, 0.1% Tween-20) three times for 5 minutes each, to which the secondary antibody (rabbit antibody, Santacruz, sc-2004) was added, followed by reaction at room temperature for 2 hours. The membrane was washed with TBST three times for 10 minutes each, to which ECL (enhanced chemiluminescence, Thermo, NCI34095KR) was sprayed. Bands were investigated by using LAS-3000.
# The inhibition of phosphatidylinositol 3 kinase gamma (PI3K γ) by those compounds prepared in Examples 1˜98 was investigated by the following experiment. The inhibition activity of each compound was measured in the following conditions: ATP=10 uM, and sample concentration=100 nM.
# (§2) Macrophages (RAW264.7) cultured in DMEM (Dulbecco's Modified Eagle Medium, Hyclon, SH30243.01) supplemented with 10% fetal bovine serum (Hyclon, USA) were distributed in a 12-well plate at the density of 1,000,000 cells/well. The cells were stabilized in a 37° C. CO2 for 24 hours and then treated with each compound for 1 and half hours. The cells were treated with 10 ng/mL of C5a (complement component 5a, 10 μg/mL; R&D, 2150-C5) to increase the intracellular activity of PI3K gamma. 5 minutes later, the medium was discarded and the cells were washed with cold PBS (phosphate buffered saline, Gibco, 14190-250). PBS was then eliminated completely by using a pipette. Western blotting was performed according to the same manner as described in step 2 of Experimental Example 1 to evaluate the intracellular PI3K gamma activity.
# [1] = biological target: T2, PI3 Kinase (p110δ/p85α) (h) (Homo sapiens, UniProt O00329); assay: Inhibition of phosphatidylinositol 3-kinase delta (PI3K δ), pAkt Western blotting in IgM-stimulated Raji cells; assay type: cell-based; conditions: ATP=10 uM, sample concentration=100 nM
# T2 construct: endogenous in cells; host or cells: Raji
# T2 sequence (O00329 whole entry): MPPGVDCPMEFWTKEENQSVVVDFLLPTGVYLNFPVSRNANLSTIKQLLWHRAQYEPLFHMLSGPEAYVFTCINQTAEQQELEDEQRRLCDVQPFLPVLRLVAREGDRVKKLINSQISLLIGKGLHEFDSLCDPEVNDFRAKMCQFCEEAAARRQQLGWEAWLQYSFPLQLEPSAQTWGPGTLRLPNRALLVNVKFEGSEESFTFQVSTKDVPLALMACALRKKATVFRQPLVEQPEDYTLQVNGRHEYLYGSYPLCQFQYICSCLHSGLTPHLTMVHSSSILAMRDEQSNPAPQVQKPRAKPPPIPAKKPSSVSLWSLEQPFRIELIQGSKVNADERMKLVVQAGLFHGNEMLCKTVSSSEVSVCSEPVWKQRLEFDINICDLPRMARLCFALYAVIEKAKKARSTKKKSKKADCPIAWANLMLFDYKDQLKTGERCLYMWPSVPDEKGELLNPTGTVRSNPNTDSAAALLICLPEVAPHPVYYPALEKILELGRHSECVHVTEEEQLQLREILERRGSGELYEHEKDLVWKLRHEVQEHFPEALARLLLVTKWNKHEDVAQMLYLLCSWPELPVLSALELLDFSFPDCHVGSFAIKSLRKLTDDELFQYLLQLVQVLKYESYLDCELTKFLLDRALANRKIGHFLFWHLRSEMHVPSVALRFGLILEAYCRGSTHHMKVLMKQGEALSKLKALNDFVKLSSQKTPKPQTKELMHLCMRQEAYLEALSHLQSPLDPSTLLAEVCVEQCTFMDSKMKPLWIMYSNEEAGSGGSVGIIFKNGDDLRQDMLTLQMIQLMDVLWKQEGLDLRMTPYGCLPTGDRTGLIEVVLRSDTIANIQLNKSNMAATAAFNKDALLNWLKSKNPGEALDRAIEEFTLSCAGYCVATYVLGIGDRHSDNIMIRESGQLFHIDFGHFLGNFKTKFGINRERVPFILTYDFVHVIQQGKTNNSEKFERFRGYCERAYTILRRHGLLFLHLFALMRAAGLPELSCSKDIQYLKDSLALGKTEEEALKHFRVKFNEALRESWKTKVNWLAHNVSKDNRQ
# T2 sequence (P27986 whole entry partner): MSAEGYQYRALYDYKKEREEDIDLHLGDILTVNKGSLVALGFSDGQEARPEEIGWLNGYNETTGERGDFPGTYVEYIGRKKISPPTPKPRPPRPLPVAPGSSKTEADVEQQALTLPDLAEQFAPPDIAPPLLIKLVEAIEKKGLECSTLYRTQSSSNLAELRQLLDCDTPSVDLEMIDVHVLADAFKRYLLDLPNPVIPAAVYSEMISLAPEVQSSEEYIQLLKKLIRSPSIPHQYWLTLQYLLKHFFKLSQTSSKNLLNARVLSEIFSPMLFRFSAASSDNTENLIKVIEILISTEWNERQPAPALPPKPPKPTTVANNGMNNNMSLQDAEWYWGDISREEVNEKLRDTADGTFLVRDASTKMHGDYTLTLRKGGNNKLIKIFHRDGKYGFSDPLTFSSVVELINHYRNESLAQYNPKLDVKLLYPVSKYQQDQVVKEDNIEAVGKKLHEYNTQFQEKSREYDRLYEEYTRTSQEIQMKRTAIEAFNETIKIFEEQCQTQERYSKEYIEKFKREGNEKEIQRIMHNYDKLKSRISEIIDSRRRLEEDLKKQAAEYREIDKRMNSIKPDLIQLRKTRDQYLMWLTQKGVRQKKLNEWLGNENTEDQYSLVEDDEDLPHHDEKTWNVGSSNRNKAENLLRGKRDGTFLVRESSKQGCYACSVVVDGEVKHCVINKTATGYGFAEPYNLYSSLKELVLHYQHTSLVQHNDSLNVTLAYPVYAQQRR
# Experimental: as §1
# The inhibition of phosphatidylinositol 3 kinase delta (PI3K δ) by those compounds prepared in Examples 1˜98 was investigated by the following experiment. The inhibition activity of each compound was measured in the following conditions: ATP=10 uM, and sample concentration=100 nM.
# as §2, with “Raji cells” for “Macrophages (RAW264.7)”, “RPMI1640 (Hyclone, SH30027.02)” for “DMEM (Dulbecco's Modified Eagle Medium, Hyclon, SH30243.01)”, “0.25 μg/mL” for “10 ng/mL”, “IgM (immunoglobulin M, Southern Biotech, USA)” for “C5a (complement component 5a, 10 μg/mL; R&D, 2150-C5)”, “delta. 30” for “gamma. 5”, “delta” for “gamma”
# T1 sequence (P48736 whole entry): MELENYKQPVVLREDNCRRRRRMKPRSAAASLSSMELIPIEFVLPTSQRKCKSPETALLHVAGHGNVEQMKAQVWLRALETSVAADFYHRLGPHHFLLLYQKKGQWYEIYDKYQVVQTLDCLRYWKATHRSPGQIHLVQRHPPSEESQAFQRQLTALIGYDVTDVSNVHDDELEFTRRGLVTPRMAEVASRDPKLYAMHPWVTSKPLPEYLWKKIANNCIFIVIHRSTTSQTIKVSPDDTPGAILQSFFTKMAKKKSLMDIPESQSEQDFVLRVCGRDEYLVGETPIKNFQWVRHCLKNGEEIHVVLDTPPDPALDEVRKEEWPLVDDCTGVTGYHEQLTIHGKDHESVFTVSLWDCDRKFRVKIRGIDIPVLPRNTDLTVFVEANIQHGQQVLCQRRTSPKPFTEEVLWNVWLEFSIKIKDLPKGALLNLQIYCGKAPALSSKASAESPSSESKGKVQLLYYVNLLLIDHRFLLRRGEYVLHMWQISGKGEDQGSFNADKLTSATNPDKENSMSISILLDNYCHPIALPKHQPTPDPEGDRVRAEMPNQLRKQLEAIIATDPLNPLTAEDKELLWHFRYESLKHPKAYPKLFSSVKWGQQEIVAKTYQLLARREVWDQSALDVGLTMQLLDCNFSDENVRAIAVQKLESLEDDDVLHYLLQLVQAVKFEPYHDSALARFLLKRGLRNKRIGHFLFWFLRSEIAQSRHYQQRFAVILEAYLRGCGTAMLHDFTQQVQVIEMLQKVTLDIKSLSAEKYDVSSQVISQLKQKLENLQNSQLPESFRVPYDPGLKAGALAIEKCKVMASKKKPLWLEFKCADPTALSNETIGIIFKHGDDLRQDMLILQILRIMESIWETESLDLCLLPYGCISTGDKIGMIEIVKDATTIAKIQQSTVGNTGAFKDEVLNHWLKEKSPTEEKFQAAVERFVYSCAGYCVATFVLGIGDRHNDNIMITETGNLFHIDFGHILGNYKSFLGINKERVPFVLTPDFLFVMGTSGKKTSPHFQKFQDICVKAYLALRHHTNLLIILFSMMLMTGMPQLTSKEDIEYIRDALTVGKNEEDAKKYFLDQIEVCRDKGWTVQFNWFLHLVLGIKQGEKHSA
Structure (SMILES),IC50 (PI3 Kinase (p120γ) (h)),IC50 [1]
"Cc1cccc(-n2c([C@@H]3CCCN3c3ncnc4[nH]cnc(=O)c34)nc3cccc(Cl)c3c2=O)c1 [Example 78, (S)-5-(2-(5-chloro-4-oxo-3-(m-tolyl)-3,4-dihydroquinazoline-2-yl)pyrrolidine-1-yl)pyrimido[4,5-d]pyrimidine-4(1H)-one]",> 500 nM,> 500 nM
"O=c1nc[nH]c2ncnc(N3CCC[C@H]3c3nn4ccc(Cl)c4c(=O)n3-c3cccc(F)c3)c12 [Example 80, (S)-5-(2-(5-chloro-3-(3-fluorophenyl)-4-oxo-3,4-dihydropyrrolo[2,1-f][1,2,4]triazine-2-yl)pyrrolidine-1-yl)pyrimido[4,5-d]pyrimidine-4(1H)-one]",> 500 nM,> 500 nM
"C[C@H](Nc1nc(N)nc2[nH]cnc(=O)c12)c1nc2cccc(Cl)c2c(=O)n1-c1ccccc1 [Example 81, (S)-7-amino-5-((1-(5-chloro-4-oxo-3-phenyl-3,4-dihydroquinazoline-2-yl)ethyl)amino)pyrimido[4,5-d]pyrimidine-4(1H)-one]",10 to 500 nM,10 to 500 nM
"C[C@H](Nc1nc(N)nc2[nH]cnc(=O)c12)c1nc2cccc(Cl)c2c(=O)n1-c1cccnc1 [Example 82, (S)-7-amino-5-((1-(5-chloro-4-oxo-3-(pyridine-3-yl)-3,4-dihydroquinazoline-2-yl)ethyl)amino)pyrimido[4,5-d]pyrimidine-4(1H)-one]",10 to 500 nM,10 to 500 nM
"C[C@H](Nc1nc(N)nc2[nH]cnc(=O)c12)c1nc2cccc(Cl)c2c(=O)n1-c1cccc(F)c1 [Example 83, (S)-7-amino-5-((1-(5-chloro-3-(3-fluorophenyl)-4-oxo-3,4-dihydroquinazoline-2-yl)ethyl)amino)pyrimido[4,5-d]pyrimidine-4(1H)-one]",> 500 nM,> 500 nM
"Cc1cccc(-n2c([C@H](C)Nc3nc(N)nc4[nH]cnc(=O)c34)nc3cccc(Cl)c3c2=O)c1 [Example 84, (S)-7-amino-5-((1-(5-chloro-4-oxo-3-(m-tolyl)-3,4-dihydroquinazoline-2-yl)ethyl)amino)pyrimido[4,5-d]pyrimidine-4(1H)-one]",10 to 500 nM,10 to 500 nM
"C[C@H](Nc1nc(N)nc2[nH]cnc(=O)c12)c1nn2ccc(Cl)c2c(=O)n1-c1ccccc1 [Example 86, (S)-7-amino-5-((1-(5-chloro-4-oxo-3-phenyl-3,4-dihydropyrrolo[2,1-f][1,2,4]triazine-2-yl)ethyl)amino)pyrimido[4,5-d]pyrimidine-4(1H)-one]",10 to 500 nM,10 to 500 nM
"C[C@H](Nc1nc(N)nc2[nH]cnc(=O)c12)c1nn2ccc(Cl)c2c(=O)n1-c1cccc(F)c1 [Example 87, (S)-7-amino-5-((1-(5-chloro-3-(3-fluorophenyl)-4-oxo-3,4-dihydropyrrolo[2,1-f][1,2,4]triazine-2-yl)ethyl)amino)pyrimido[4,5-d]pyrimidine-4(1H)-one]",10 to 500 nM,< 10 nM
"CC[C@H](Nc1nc(N)nc2[nH]cnc(=O)c12)c1nc2cccc(F)c2c(=O)n1-c1ccccc1 [Example 89, (S)-7-amino-5-((1-(5-fluoro-4-oxo-3-phenyl-3,4-dihydroquinazoline-2-yl)propyl)amino)pyrimido[4,5-d]pyrimidine-4(1H)-one]",10 to 500 nM,10 to 500 nM
"Nc1nc(N2CCC[C@H]2c2nc3cccc(Cl)c3c(=O)n2-c2ccccc2)c2c(=O)nc[nH]c2n1 [Example 90, (S)-7-amino-5-(2-(5-chloro-4-oxo-3-phenyl-3,4-dihydroquinazoline-2-yl)pyrrolidine-1-yl)pyrimido[4,5-d]pyrimidine-4(1H)-one]",> 500 nM,> 500 nM
"Nc1nc(N2CCC[C@H]2c2nc3cccc(Cl)c3c(=O)n2-c2cccnc2)c2c(=O)nc[nH]c2n1 [Example 91, (S)-7-amino-5-(2-(5-chloro-4-oxo-3-(pyridine-3-yl)-3,4-dihydroquinazoline-2-yl)pyrrolidine-1-yl)pyrimido[4,5-d]pyrimidine-4(1H)-one]",> 500 nM,> 500 nM
"Nc1nc(N2CCC[C@H]2c2nc3cccc(Cl)c3c(=O)n2-c2cccc(F)c2)c2c(=O)nc[nH]c2n1 [Example 92, (S)-7-amino-5-(2-(5-chloro-3-(3-fluorophenyl)-4-oxo-3,4-dihydroquinazoline-2-yl)pyrrolidine-1-yl)pyrimido[4,5-d]pyrimidine-4(1H)-one]",> 500 nM,> 500 nM
"Cc1cccc(-n2c([C@@H]3CCCN3c3nc(N)nc4[nH]cnc(=O)c34)nc3cccc(Cl)c3c2=O)c1 [Example 93, (S)-7-amino-5-(2-(5-chloro-4-oxo-3-(m-tolyl)-3,4-dihydroquinazoline-2-yl)pyrrolidine-1-yl)pyrimido[4,5-d]pyrimidine-4(1H)-one]",> 500 nM,> 500 nM
"Nc1nc(N2CCC[C@H]2c2cc3cccc(Cl)c3c(=O)n2-c2ccccc2)c2c(=O)nc[nH]c2n1 [Example 94, (S)-7-amino-5-(2-(8-chloro-1-oxo-2-phenyl-1,2-dihydroisoquinoline-3-yl)pyrrolidine-1-yl)pyrimido[4,5-d]pyrimidine-4(1H)-one]",10 to 500 nM,10 to 500 nM
"Nc1nc(N2CCC[C@H]2c2nn3ccc(Cl)c3c(=O)n2-c2cccc(F)c2)c2c(=O)nc[nH]c2n1 [Example 96, (S)-7-amino-5-(2-(5-chloro-3-(3-fluorophenyl)-4-oxo-3,4-dihydropyrrolo[2,1-f][1,2,4]triazine-2-yl)pyrrolidine-1-yl)pyrimido[4,5-d]pyrimidine-4(1H)-one]",> 500 nM,> 500 nM
"C[C@H](Nc1ncnc2c1C(=O)CCN2)c1cc2cccc(Cl)c2c(=O)n1-c1ccccc1 [Example 97, (S)-4-((1-(8-chloro-1-oxo-2-phenyl-1,2-dihydroisoquinoline-3-yl)ethyl)amino)-7,8-dihydropyrido[2,3-d]pyrimidine-5(6H)-one]",10 to 500 nM,< 10 nM

# From US10526337B2, “Heteroaryl derivative or pharmaceutically acceptable salt thereof, preparation method therefor, and pharmaceutical composition for preventing or treating diseases associated with PI3 kinases, containing same as active ingredient” (KOREA RESEARCH INSTITUTE OF CHEMICAL TECHNOLOGY, priority 2015, dated 2020)
